ChEMBL document CHEMBL3994614, “Novel flavonolignan hybrid antioxidants: From enzymatic preparation to molecular rationalization” (Eur J Med Chem, 2017)
Active and inactive are the calls of the source. The calls are words filed in the database; no cut-off is given here.

What was measured:
[1] = Antioxidant activity assessed as trolox equivalent of ABTS radical scavenging activity at 100 uM measured at >= 5 mins; assay type: functional
HepG2 [2] = test: Cytoprotective activity against tert-butyl hydroperoxide-induced toxicity in human HepG2 cells assessed as cell viability at 5 uM pretreated for 1 hr followed by tert-butyl hydroperoxide addition for 3 hrs by MTT assay (reference value: 16%); assay type: functional
HepG2 [3] = test: Cytotoxicity against human HepG2 cells assessed as reduction in cell viability up to 10 uM after 4 hrs by MTT assay; assay type: cell-based; conditions: hepg2, 4 h
[4] = Electro-oxidation activity at glassy carbon electrode in pH 2 to 12 at 50 uM by square-wave voltammetry
[5] = Antioxidant activity assessed as DPPH radical scavenging activity after 30 mins by spectrophotometric method; assay type: functional
Liver [6] = test: Antioxidant activity against tert-butyl hydroperoxide-induced lipoperoxidation in rat liver microsomal membranes preincubated for 10 mins followed by tert-butyl hydroperoxide addition measured after 60 mins by TBARS assay; assay type: functional, cell membranes, Microsomal Membrane
[7] = Electro-oxidation activity at glassy carbon electrode in pH 5 acetate buffer at 50 uM by square-wave voltammetry
[8] = Antiradical activity assessed as gallic acid equivalents of Foline-Ciocalteu reagent reducing capacity at 1 mM preincubated for 5 mins followed by Na2CO3 addition measured after 90 mins
HepG2 [9] = test: Cytoprotective activity against tert-butyl hydroperoxide-induced toxicity in human HepG2 cells assessed as cell viability at 5 uM pretreated for 1 hr followed by co-treatment with tert-butyl hydroperoxide for 3 hrs by MTT assay (reference value: 22%); assay type: functional
[10] = Aqueous solubility of the compound in buffer solution; assay type: physicochemical
[11] = Antioxidant activity assessed as DPPH radical scavenging activity after 30 mins in presence of L-ascorbic acid by spectrophotometric method; assay type: functional
[12] = Antioxidant activity assessed as trolox equivalent of ABTS radical scavenging activity at 100 uM measured at >= 5 mins in presence of L-ascorbic acid; assay type: functional
[13] = Antiradical activity assessed as gallic acid equivalents of Foline-Ciocalteu reagent reducing capacity at 1 mM preincubated for 5 mins followed by Na2CO3 addition measured after 90 mins in presence of L-ascorbic acid
HepG2 [14] = test: Cytoprotective activity against tert-butyl hydroperoxide-induced decrease in cell viability in human HepG2 cells at 5 uM pretreated for 1 hr followed by co-treatment with tert-butyl hydroperoxide for 3 hrs in presence of L-ascorbic acid by MTT assay; assay type: functional, cell-based
Liver [15] = test: Antioxidant activity against tert-butyl hydroperoxide-induced lipoperoxidation in rat liver microsomal membranes preincubated for 10 mins followed by tert-butyl hydroperoxide addition measured after 60 mins in presence of L-ascorbic acid by TBARS assay; assay type: functional, cell membranes, Microsomal Membrane
Liver [16] = test: Antioxidant activity against tert-butyl hydroperoxide-induced lipoperoxidation in rat liver microsomal membranes at 1 mM preincubated for 10 mins followed by tert-butyl hydroperoxide addition measured after 60 mins by TBARS assay relative to control; assay type: functional, cell membranes; conditions: Microsomal Membrane
Liver [17] = test: Antioxidant activity against tert-butyl hydroperoxide-induced lipoperoxidation in rat liver microsomal membranes at 50 uM preincubated for 10 mins followed by tert-butyl hydroperoxide addition measured after 60 mins by TBARS assay relative to control; assay type: functional, cell membranes; conditions: Microsomal Membrane
HepG2 [18] = test: Cytoprotective activity against tert-butyl hydroperoxide-induced decrease in cell viability in human HepG2 cells at 5 uM pretreated for 1 hr followed by co-treatment with tert-butyl hydroperoxide for 3 hrs in presence of silybin by MTT assay; assay type: functional, cell-based
Liver [19] = test: Antioxidant activity against tert-butyl hydroperoxide-induced lipoperoxidation in rat liver microsomal membranes preincubated for 10 mins followed by tert-butyl hydroperoxide addition measured after 60 mins in presence of silybin by TBARS assay; assay type: functional, cell membranes, Microsomal Membrane
[20] = Antioxidant activity assessed as trolox equivalent of ABTS radical scavenging activity at 100 uM measured at >= 5 mins in presence of silybin; assay type: functional
[21] = Antioxidant activity assessed as DPPH radical scavenging activity after 30 mins in presence of silybin by spectrophotometric method; assay type: functional
[22] = Antiradical activity assessed as gallic acid equivalents of Foline-Ciocalteu reagent reducing capacity at 1 mM preincubated for 5 mins followed by Na2CO3 addition measured after 90 mins in presence of silybin

IC50 [5]	IC50 (Liver [6])	SMILES	Activity [1]	Activity (HepG2 [3])	Activity [7]	Activity [8]	further results
20.6 µM	30.2 µM	COc1cc([C@H]2Oc3cc([C@H]4Oc5cc(O)cc(O)c5C(=O)[C@@H]4O)ccc3O[C@@H]2COC(=O)CCCCCCCCCCC(=O)OC[C@H](O)[C@H]2OC(=O)C(O)=C2O)ccc1O	1.32 equiv	Non-Toxic	Active	0.65 equiv	viability at 5 µM (HepG2 [2]; read-out: Activity): 27%; Activity [4]: Active; viability at 5 µM (HepG2 [9]; read-out: Activity): 43%
–	–	C=COC(=O)CCCCCCCCCCC(=O)OC=C	–	–	inactive	–	–
372 µM	111 µM	C=COC(=O)CCCCCCCCCCC(=O)OC[C@H]1Oc2ccc([C@H]3Oc4cc(O)cc(O)c4C(=O)[C@@H]3O)cc2O[C@@H]1c1ccc(O)c(OC)c1	0.93 equiv	–	inactive	0.15 equiv	solubility [10]: Insoluble
3.5 µM	72.9 µM	COc1cc([C@H]2Oc3cc([C@H]4Oc5cc(O)cc(O)c5C(=O)[C@@H]4O)ccc3O[C@@H]2COC(=O)CCCCCCCCCCC(=O)OCC2(C)CCc3c(C)c(O)c(C)c(C)c3O2)ccc1O (stereo not given in full)	0.24 equiv	–	inactive	0.15 equiv	–
244 µM	77.1 µM	COc1cc(C2Oc3cc([C@H]4Oc5cc(O)cc(O)c5C(=O)[C@@H]4O)ccc3OC2CO)ccc1O (stereo not given in full) [SILIBININ]	0.78 equiv	Non-Toxic	inactive	0.92 equiv	IC50 [11]: 2.94 µM; Activity (HepG2 [2]): inactive; Activity [12]: 0.42 equiv; Activity [13]: 0.25 equiv; Activity (HepG2 [14]): inactive; IC50 (Liver [15]): 56.5 µM; Activity (HepG2 [9]): inactive
253 µM	> 1000 µM	COc1cc([C@H]2Oc3cc([C@H]4Oc5cc(O)cc(O)c5C(=O)[C@@H]4O)ccc3O[C@@H]2COC(=O)CCCCCCCCCCC(=O)OCCc2ccc(O)cc2)ccc1O	0.33 equiv	–	inactive	0.17 equiv	inhibition (Liver [16]): 17%
2.76 µM	> 1000 µM	O=C1O[C@H]([C@@H](O)CO)C(O)=C1O [ASCORBIC ACID]	0.57 equiv	Non-Toxic	–	0.51 equiv	Activity (HepG2 [2]): inactive; inhibition (Liver [17]): 139%; Activity (HepG2 [18]): inactive; IC50 (Liver [19]): 56.5 µM; Activity [20]: 0.42 equiv; inhibition (Liver [16]): 13%; IC50 [21]: 2.94 µM; Activity [22]: 0.25 equiv; Activity (HepG2 [9]): inactive
3.58 µM	–	Cc1c(C)c2c(c(C)c1O)CCC(C)(CO)O2 (stereo not given)	–	–	–	–	–
